Among the data in PubChem BioAssay AID1195 (EPA DSSTox, 2008) are maximum recommended daily dose (mmol/kg-bw/day) values, retold here.

The data set deals with human maximum recommended daily dose, FDA database. Kind of data set: DSSTox (FDAMDD) FDA Maximum (Recommended) Daily Dose Database. Particulars: hits give low values. Put shortly:
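MRDD values come from clinical trials with daily oral dosing, usually for 3–12 months, for the average adult, in mg/day converted to mg/kg-bw/day assuming 60 kg. Antineoplastic mg/m2 doses are divided by 37. Activity score maps log10(1/MRDD mmol) onto 1–100.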

The mark [1] stands for this setting: TherapeuticCategory: antibacterial.
Where [2] appears, read: TherapeuticCategory: antihypertensive.
Where [3] appears, read: TherapeuticCategory: antineoplastic.
Where [4] appears, read: TherapeuticCategory: antidepressant.
Setting [5] is: TherapeuticCategory: anticonvulsant.
Setting [6] is: TherapeuticCategory: progestogen.
Where [7] appears, read: TherapeuticCategory: skeletal muscle relaxant.
[8] abbreviates: TherapeuticCategory: glucocorticoid.
[9] abbreviates: TherapeuticCategory: antihyperlipoproteinemic.

Turning to `CCCCCCCCCCC(=O)O[C@H]1CC[C@H]2[C@@H]3CCc4cc(O)ccc4[C@H]3CC[C@]12C`, the maximum recommended daily dose (mmol/kg-bw/day) (TherapeuticCategory: estrogen) is 0.00113.
Regarding `Nc1nc(N)c2nc(CNc3ccc(C(=O)NC(CCC(=O)O)C(=O)O)cc3)cnc2n1` (configuration not stated), the maximum recommended daily dose (mmol/kg-bw/day) (TherapeuticCategory: rodenticide) is 1.89e-05.
As to `CC(=O)OCC1=C(C(=O)O)N2C(=O)[C@@H](NC(=O)CSc3ccncc3)[C@H]2SC1`, under setting [1], the maximum recommended daily dose (mmol/kg-bw/day) was 0.236.
`Oc1c(Cl)cc(Cl)c2cccnc12`: under “TherapeuticCategory: antiseborrhetic”, the maximum recommended daily dose (mmol/kg-bw/day) was 0.312.
With `CC(=O)Nc1ccc(/C=N/NC(N)=S)cc1`, the maximum recommended daily dose (mmol/kg-bw/day) under setting [1] was 0.0106.
For `Nc1ncnc2nc[nH]c12`, the maximum recommended daily dose (mmol/kg-bw/day) (TherapeuticCategory: research) is 0.111.
As for `C[C@](N)(Cc1ccc(O)c(O)c1)C(=O)O`, the maximum recommended daily dose (mmol/kg-bw/day) under setting [2] was 0.158.
With `CCCCCCCCCCC[C@@H](C[C@@H]1OC(=O)[C@H]1CCCCCC)OC(=O)C(CC(C)C)NC=O` (some centres not stated), under “TherapeuticCategory: antiobesity”, the maximum recommended daily dose (mmol/kg-bw/day) is 0.0121.
Turning to `C[C@H]1CC2=CC(=O)CC[C@]2(C)[C@H]2CC[C@@]3(C)[C@@H](CC[C@]3(C)O)[C@H]12`, the maximum recommended daily dose (mmol/kg-bw/day) under setting [3] is 0.0158.
For the molecule `CN[C@H]1CC[C@@H](c2ccc(Cl)c(Cl)c2)c2ccccc21`, the maximum recommended daily dose (mmol/kg-bw/day) under setting [4] was 0.0109.
In the case of `CCCC(CCC)C(N)=O`, under setting [5], the maximum recommended daily dose (mmol/kg-bw/day) was 0.232.
Regarding `C#C[C@]1(O)CC[C@H]2[C@@H]3CCC4=CC(=O)CC[C@]4(C)[C@H]3CC[C@@]21C`, under setting [6], the maximum recommended daily dose (mmol/kg-bw/day) was 0.00534.
Consider `NC[C@@H]1O[C@H](O[C@H]2[C@@H](O)[C@H](O[C@@H]3[C@@H](O)[C@H](N)C[C@H](N)[C@H]3O[C@H]3O[C@H](CN)[C@@H](O)[C@H](O)[C@H]3N)O[C@@H]2CO)[C@H](N)[C@@H](O)[C@@H]1O`, for which the maximum recommended daily dose (mmol/kg-bw/day) under setting [1] is 0.163.
On to `CC(C)[N+](C)(CCC(C(N)=O)(c1ccccc1)c1ccccc1)C(C)C`, for which the maximum recommended daily dose (mmol/kg-bw/day) (TherapeuticCategory: anticholinergic) is 0.000472.
Consider `NS(=O)(=O)c1cc2c(cc1C(F)(F)F)NCNS2(=O)=O`, for which the maximum recommended daily dose (mmol/kg-bw/day) (TherapeuticCategory: antihypertensive, diuretic) is 0.0101.
`Cc1ccccc1-n1c(CF)nc2ccc(N)cc2c1=O`: under setting [7], the maximum recommended daily dose (mmol/kg-bw/day) is 0.00353.
Turning to `CN(C)CCC=C1c2ccccc2CCc2ccccc21`, the maximum recommended daily dose (mmol/kg-bw/day) under setting [4] was 0.018.
Regarding `COc1ccc2cc1Oc1cc3c(cc1OC)CC[N+](C)(C)[C@H]3Cc1ccc(cc1)Oc1c(OC)c(OC)cc3c1[C@@H](C2)[N+](C)(C)CC3`, the maximum recommended daily dose (mmol/kg-bw/day) under setting [7] was 0.000441.
Turning to `CC(=O)Oc1ccc(C(c2ccc(OC(C)=O)cc2)c2ccccn2)cc1`, the maximum recommended daily dose (mmol/kg-bw/day) (TherapeuticCategory: cathartic) was 0.000692.
Turning to `O=C1CN2CCOC2(c2ccccc2Cl)c2cc(Cl)ccc2N1` (configuration not stated), the maximum recommended daily dose (mmol/kg-bw/day) (TherapeuticCategory: anxiolytic) was 0.000573.
Consider `NCC[C@H](O)C(=O)N[C@@H]1C[C@H](N)[C@@H](O[C@H]2O[C@H](CN)[C@@H](O)[C@H](O)[C@H]2O)[C@H](O)[C@H]1O[C@H]1O[C@H](CO)[C@@H](O)[C@H](N)[C@H]1O`, for which the maximum recommended daily dose (mmol/kg-bw/day) under setting [1] was 0.0256.
`CN(CCCN1c2ccccc2CCc2ccccc21)CC(=O)c1ccc(Cl)cc1`: the maximum recommended daily dose (mmol/kg-bw/day) under setting [4] was 0.00835.
In the case of `c1ccc(CC2=NCCN2)cc1`, the maximum recommended daily dose (mmol/kg-bw/day) (TherapeuticCategory: antiadrenergic) was 0.0125.
In the case of `Nc1nc(F)nc2c1ncn2[C@@H]1O[C@H](COP(=O)(O)O)[C@@H](O)[C@@H]1O`, the maximum recommended daily dose (mmol/kg-bw/day) under setting [3] is 0.00185.
Regarding `NCCCC(N)(C(=O)O)C(F)F` (configuration not stated), the maximum recommended daily dose (mmol/kg-bw/day) (TherapeuticCategory: antineoplastic, antineumocystis, antiprotozoal) was 2.2.
Turning to `CCCCCCCC/C=C\CCCCCCCC(=O)O`, the maximum recommended daily dose (mmol/kg-bw/day) (TherapeuticCategory: sclerosing agent) is 0.242.
On to `COc1ccc2[nH]cc(CCNC(C)=O)c2c1`, for which the maximum recommended daily dose (mmol/kg-bw/day) (TherapeuticCategory: antioxidant) was 0.000359.
For `C#C[C@]1(OC(C)=O)CC[C@H]2[C@@H]3CCC4=C[C@@H](OC(C)=O)CC[C@@H]4[C@H]3CC[C@@]21C`, the maximum recommended daily dose (mmol/kg-bw/day) under setting [6] is 4.34e-05.
On to `C=CC[N+]1([C@H]2C[C@H]3[C@@H]4CC[C@H]5C[C@H](O)[C@@H](N6CCOCC6)C[C@]5(C)[C@H]4CC[C@]3(C)[C@H]2OC(C)=O)CCCC1`, for which the maximum recommended daily dose (mmol/kg-bw/day) (TherapeuticCategory: skeletal muscle relaxant, neuromuscular blocker) was 0.00197.
For `CC1(C)[C@@H](OC(=O)CCC(=O)O)CC[C@]2(C)[C@H]3C(=O)C=C4[C@@H]5C[C@@](C)(C(=O)O)CC[C@]5(C)CC[C@@]4(C)[C@]3(C)CC[C@@H]12`, the maximum recommended daily dose (mmol/kg-bw/day) (TherapeuticCategory: antiulcerative) is 0.00876.
For the molecule `COc1cc(OC)c(C(=O)CCCN2CCCC2)c(OC)c1`, under “TherapeuticCategory: peripheral vasodilator”, the maximum recommended daily dose (mmol/kg-bw/day) is 0.0325.
For `C[C@]12C=CC(=O)C=C1CC[C@@H]1[C@@H]2CC[C@]2(C)OC(=O)CC[C@@H]12`, the maximum recommended daily dose (mmol/kg-bw/day) under setting [3] was 0.0139.
On to `CC[C@@H](C(N)=O)N1CCCC1=O`, for which the maximum recommended daily dose (mmol/kg-bw/day) under setting [5] was 0.353.
As to `COC(=O)C1=C(C)NC(C)=C(C(=O)OCCN(C)Cc2ccccc2)C1c1cccc([N+](=O)[O-])c1` (configuration not stated), the maximum recommended daily dose (mmol/kg-bw/day) (TherapeuticCategory: antianginal, antihypertensive) is 0.00417.
For the molecule `CC(=O)OCC(=O)[C@@]1(OC(=O)C(C)C)[C@@H](C)C[C@H]2[C@@H]3CCC4=CC(=O)C=C[C@]4(C)[C@@]3(F)[C@@H](O)C[C@@]21C`, the maximum recommended daily dose (mmol/kg-bw/day) under setting [8] is 0.000297.
Regarding `CCn1ccc(NS(=O)(=O)c2ccc(N)cc2)nc1=O`, under setting [1], the maximum recommended daily dose (mmol/kg-bw/day) was 0.0567.
Turning to `CC(=O)OC(C)C[N+](C)(C)C` (configuration not stated), where the note is “TherapeuticCategory: cholinergic, diagnostic aid”, the maximum recommended daily dose (mmol/kg-bw/day) is 0.00213.
As to `Cn1cc[nH]c1=S`, the maximum recommended daily dose (mmol/kg-bw/day) (TherapeuticCategory: antihyperthyroid) is 0.00876.
`Cc1ccccc1-n1c(C)nc2ccccc2c1=O`: the maximum recommended daily dose (mmol/kg-bw/day) (TherapeuticCategory: hypnotic, sedative) was 0.02.
Consider `COc1cnc(NS(=O)(=O)c2ccc(N)cc2)nc1`, for which, under setting [1], the maximum recommended daily dose (mmol/kg-bw/day) was 0.0892.
`O=C(O)COCCN1CCN(C(c2ccccc2)c2ccc(Cl)cc2)CC1` (configuration not stated): the maximum recommended daily dose (mmol/kg-bw/day) (TherapeuticCategory: antihistaminic) is 0.0432.
Take `O=C(O)CCCC[C@@H]1SC[C@@H]2NC(=O)N[C@@H]21`: the maximum recommended daily dose (mmol/kg-bw/day) (TherapeuticCategory: none) was 1.36e-05.
Consider `CC(C)(Oc1ccc(C2CC2(Cl)Cl)cc1)C(=O)O` (configuration not stated), for which, under setting [9], the maximum recommended daily dose (mmol/kg-bw/day) is 0.00578.
For `CCCCC1=NC2(CCCC2)C(=O)N1Cc1ccc(-c2ccccc2-c2nn[nH]n2)cc1`, the maximum recommended daily dose (mmol/kg-bw/day) under setting [2] was 0.0117.
For the molecule `C[n+]1ccccc1/C=N/O`, under “TherapeuticCategory: cholinesterase inhibitor”, the maximum recommended daily dose (mmol/kg-bw/day) is 0.193.
As for `CCc1nn(CCCN2CCN(c3cccc(Cl)c3)CC2)c(=O)n1CCOc1ccccc1`, the maximum recommended daily dose (mmol/kg-bw/day) (TherapeuticCategory: antidepressant, seratonin receptor antagonist) is 0.0213.
For the molecule `CCCCC(=O)O[C@]1(C(=O)CO)[C@@H](C)C[C@H]2[C@@H]3CCC4=CC(=O)C=C[C@]4(C)[C@@]3(F)[C@@H](O)C[C@@]21C`, under setting [8], the maximum recommended daily dose (mmol/kg-bw/day) is 0.000315.
Turning to `O=NN(CCCl)C(=O)N[C@@H]1[C@@H](O)[C@H](O)[C@@H](CO)O[C@@H]1O`, under setting [3], the maximum recommended daily dose (mmol/kg-bw/day) was 0.0129.
For `Cc1cc(C(=O)NNCc2ccccc2)no1`, under setting [4], the maximum recommended daily dose (mmol/kg-bw/day) was 0.00432.
As for `N[C@@H]1[C@@H](O)[C@H](O)[C@@H](CO)O[C@H]1O`, the maximum recommended daily dose (mmol/kg-bw/day) (TherapeuticCategory: antiarthritic) was 0.558.
On to `N=C(N)c1ccc(N=NNc2ccc(C(=N)N)cc2)cc1` (tested in a mixture with another compound), for which the maximum recommended daily dose (mmol/kg-bw/day) (TherapeuticCategory: antiprotozoal) was 0.0097.
`CC(=O)N[C@H]1[C@H]([C@H](O)[C@H](O)CO)OC(C(=O)O)=C[C@@H]1N=C(N)N`: for the setting “TherapeuticCategory: neuraminidase inhibitors”, the maximum recommended daily dose (mmol/kg-bw/day) is 0.001.
As for `N#CC(CCN1CCC(C(=O)O)(c2ccccc2)CC1)(c1ccccc1)c1ccccc1`, the maximum recommended daily dose (mmol/kg-bw/day) (TherapeuticCategory: antiperistaltic, antidiarrheal) is 0.000313.
On to `CC(=O)OCC(=O)[C@@]1(O)CC[C@H]2[C@@H]3CCC4=CC(=O)CC[C@]4(C)[C@H]3C(=O)C[C@@]21C`, for which the maximum recommended daily dose (mmol/kg-bw/day) under setting [8] is 0.0124.
Regarding `C[C@H]1CCC[C@H](O)CCCCCc2cc(O)cc(O)c2C(=O)O1`, under “TherapeuticCategory: anabolic”, the maximum recommended daily dose (mmol/kg-bw/day) is 1.55e-06.
Consider `O=C(CCNNC(=O)c1ccncc1)NCc1ccccc1`, for which, under setting [4], the maximum recommended daily dose (mmol/kg-bw/day) was 0.0112.
For `CCOC(=O)c1c(C)cc2c(CO)n[nH]c(=O)c2c1C`, the maximum recommended daily dose (mmol/kg-bw/day) (TherapeuticCategory: phosphodiesterase inhibitor) is 0.724.
Consider `NCC(CC(=O)O)c1ccc(Cl)cc1` (configuration not stated), for which the maximum recommended daily dose (mmol/kg-bw/day) under setting [7] is 0.00622.
For the molecule `COCc1c(C(C)C)nc(C(C)C)c(/C=C/[C@@H](O)C[C@@H](O)CC(=O)O)c1-c1ccc(F)cc1`, under setting [9], the maximum recommended daily dose (mmol/kg-bw/day) was 1.09e-05.
With `CC(CCc1ccc(O)cc1)NCCc1ccc(O)c(O)c1` (configuration not stated), the maximum recommended daily dose (mmol/kg-bw/day) (TherapeuticCategory: cardiotonic) was 0.000133.
`NS(=O)(=O)c1cc(C(=O)O)c(NCc2ccco2)cc1Cl`: the maximum recommended daily dose (mmol/kg-bw/day) (TherapeuticCategory: diuretic, antihypertensive) was 0.0302.
As for `C=CCN1CC[C@]23c4c5ccc(O)c4O[C@H]2C(=O)CC[C@@]3(O)[C@H]1C5`, the maximum recommended daily dose (mmol/kg-bw/day) (TherapeuticCategory: narcotic antagonist) is 0.000305.
Turning to `C#C[C@]1(O)CC[C@H]2[C@@H]3CCC4=CC(=O)CC[C@@H]4[C@H]3CC[C@@]21C`, the maximum recommended daily dose (mmol/kg-bw/day) under setting [6] was 5.6e-05.
With `N[C@@H](Cc1ccc(O)cc1)C(=O)O`, the maximum recommended daily dose (mmol/kg-bw/day) (TherapeuticCategory: none) is 0.552.
Consider `CC(C)(C)NCC(O)COc1cccc2c1CCCC2=O` (configuration not stated), for which the maximum recommended daily dose (mmol/kg-bw/day) (TherapeuticCategory: antiglaucoma) is 0.000858.
Turning to `CNCCc1ccccn1`, the maximum recommended daily dose (mmol/kg-bw/day) (TherapeuticCategory: vasodilator) was 0.00587.
Turning to `Nc1[nH]c(=O)ncc1F`, under “TherapeuticCategory: antifungal”, the maximum recommended daily dose (mmol/kg-bw/day) was 1.16.
